The values that follow come from patent publication EP4667466A1, “PROTAC DEGRADERS OF MLLT1 AND/OR MLLT3” (priority 2024, dated 2025).

The term inhibition denotes the drop in the measured response relative to a control, in per cent. A low value points to a response near the control. In general, IC50 refers to the midpoint of a concentration-inhibition curve.

SMILES strings stand for the structures.

Assay [1] has as its target T1, MLLT1 (Homo sapiens, UniProt Q03111).
T1 construct: endogenous in cells; host or cells: MV4-11 (ATCC CRL-9591)
T1 sequence (Q03111 1-559): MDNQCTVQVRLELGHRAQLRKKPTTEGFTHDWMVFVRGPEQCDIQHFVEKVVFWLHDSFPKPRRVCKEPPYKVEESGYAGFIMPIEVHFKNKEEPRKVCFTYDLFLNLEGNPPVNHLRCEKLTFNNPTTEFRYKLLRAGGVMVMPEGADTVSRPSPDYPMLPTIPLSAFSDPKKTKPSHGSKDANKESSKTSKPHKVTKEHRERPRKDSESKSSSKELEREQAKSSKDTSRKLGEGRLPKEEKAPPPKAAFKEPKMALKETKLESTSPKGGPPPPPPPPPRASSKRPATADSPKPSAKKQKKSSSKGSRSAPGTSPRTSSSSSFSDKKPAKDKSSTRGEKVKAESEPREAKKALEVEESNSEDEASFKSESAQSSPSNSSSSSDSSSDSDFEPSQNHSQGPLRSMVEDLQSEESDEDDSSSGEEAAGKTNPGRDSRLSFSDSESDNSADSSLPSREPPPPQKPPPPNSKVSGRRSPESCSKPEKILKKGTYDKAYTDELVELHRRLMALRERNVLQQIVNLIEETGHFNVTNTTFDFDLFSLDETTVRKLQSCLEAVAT
The assay is described as follows: MLLT1 degradation assay (JESS automated chemiluminescent detection) in MV4-11 cells. The assay is classed as cell-based. To be noted: 24h, with respect to DMSO control. A digest of the protocol: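 MV4-11 cells were treated with 1000, 100 or 10 nM compound (0.1% DMSO) for 24 h at 37 °C. Lysates (4 µg protein) were probed for MLLT1 and GAPDH by JESS capillary chemiluminescence. Degradation was calculated from band peak areas versus DMSO control and binned into categories A–D.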

The test system of assay [2] is MV4-11 cells. The assay can be described thus: MV4-11 cellular proliferation assay, Assay Format A (CellTiter-Glo, 120 hours). The assay is classed as cell-based. Conditions: Homo sapiens, Assay method A, read-out: MV4-11 antiproliferative IC50. How it is done:
An MV4-11 proliferation assay was used to test the ability of compounds to reduce cell viability.
After 120 hours of treatment, cells were incubated for 10 min at RT with the CellTiter-Glo (CTG) reagent (G7571, Promega). Measurement of the luminescence signal was performed on a microplate reader (Ensight, PerkinElmer). CTG reagent measures the amount of ATP, which is directly proportional to the number of cells, to determine the number of viable cells in culture.
The data were analysed as follows: Data normalization, N(x) = (x−〈cr〉)/(〈sr〉−〈cr〉) × 100 [formula] where x is the measured raw signal value of a well, (cr) is the median of the measured signal values for the Central Reference (DMSO) wells on a plate, (sr) is the median of the measured signal values for the Scale Reference (reference compound) wells on a plate. Curve fitting, S0 + (Sinf −S0)/(1 + (((AC50)/(10^c)))^n) [formula] where the experimental set-up assumes the Hill parameters in certain ranges: S0 ~ Central Reference (CR) from normalization (= Bottom), Sinf ~ Scale Reference (SR) from normalization (= Top), nHill ~ 1, AC50 ~ within the measured concentration range.
(ATP-based viability assays read luminescence as a measure of living cells.)

Consider `Cc1nn(CCOCCNc2cccc3c2C(=O)N(C2CCC(=O)NC2=O)C3=O)c2cc(C(=O)Nc3cc4[nH]c([C@H]5CCCN5C)cc4cn3)ccc12` (stereo partly drawn) [Example 26, 1-(2-(2-((2-(2,6-dioxopiperidin-3-yl)-1,3-dioxoisoindolin-4yl)amino)ethoxy)ethyl)-3-methyl-N-(2-((R)-1-methylpyrrolidin-2-yl)-1H-pyrrolo[3,2-c]pyridin-6-yl)-1H-indazole-6-carboxamide], for which, in assay [1], the inhibition at 0.1 µM was ≥ 75% and the inhibition at 1 µM was ≥ 75%. Besides, the IC50 in assay [2] is 14 nM.

As for `Cc1nn(CCCCCCNc2cccc3c2C(=O)N(C2CCC(=O)NC2=O)C3=O)c2cc(C(=O)Nc3cc4[nH]c([C@H]5CCCN5C)cc4cn3)ccc12` (stereo partly drawn) [Example 22, 1-(6-{[2-(2,6-dioxopiperidin-3-yl)-1,3-dioxoisoindol-4-yl]amino}hexyl)-3-methyl-N-{2-[(2R)-1-methylpyrrolidin-2-yl]-1H-pyrrolo[3,2-c]pyridin-6-yl}indazole-6-carboxamide], in assay [1], the inhibition at 0.01 µM is ≥ 75%, the inhibition at 0.1 µM was ≥ 75% and the inhibition at 1 µM was ≥ 75%. The IC50 in assay [2] is 8 nM.

Regarding `Cc1nn(CCCCC#Cc2cccc3c2CN(C2CCC(=O)NC2=O)C3=O)c2cc(C(=O)Nc3cc4[nH]c([C@H]5CCCN5C)cc4cn3)ccc12` (stereo partly drawn) [Example 46, 1-(6-(2-(2,6-dioxopiperidin-3-yl)-1-oxoisoindolin-4-yl)hex-5-yn-1-yl)-3-methyl-N-(2-((R)-1-methylpyrrolidin-2-yl)-1H-pyrrolo[3.2-c]pyridin-6-yl)-1H-indazole-6-carboxamide], in assay [1], the inhibition at 0.01 µM is ≥ 75%, the inhibition at 0.1 µM is ≥ 75% and the inhibition at 1 µM lay in the range of 50 to 75%. In addition, the IC50 in assay [2] stood at 7 nM.

As to `Cc1nn(CCCCNc2cccc3c2C(=O)N(C2CCC(=O)NC2=O)C3=O)c2cc(C(=O)Nc3cc4[nH]c([C@H]5CCCN5C)cc4cn3)ccc12` (stereo partly drawn) [Example 21, 1-(4-((2-(2,6-dioxopiperidin-3-yl)-1,3-dioxoisoindolin-4-yl)amino)butyl)-3-methyl-N-(2-((R)-1-methylpyrrolidin-2-yl)-1H-pyrrolo[3,2-c]pyridin-6-yl)-1H-indazole-6-carboxamide], in assay [1], the inhibition at 0.01 µM is ≥ 75%, the inhibition at 0.1 µM is ≥ 75% and the inhibition at 1 µM was ≥ 75%. In addition, the half-maximal inhibitory concentration (IC50) in assay [2] amounted to 11 nM.

Consider `Cc1nn(CCCC#Cc2cccc3c2CN(C2CCC(=O)NC2=O)C3=O)c2cc(C(=O)Nc3cc4[nH]c([C@H]5CCCN5C)cc4cn3)ccc12` (stereo partly drawn) [Example 32, 1-(5-(2-(2,6-dioxopiperidin-3-yl)-1-oxoisoindolin-4-yl)pent-4-yn-1-yl)-3-methyl-N-(2-((R)-1-methylpyrrolidin-2-yl)-1H-pyrrolo[3,2-c]pyridin-6-yl)-1H-indazole-6-carboxamide], for which, in assay [1], the inhibition at 0.01 µM lay in the range of 50 to 75%, the inhibition at 0.1 µM is ≥ 75% and the inhibition at 1 µM lay in the range of 50 to 75%. The IC50 in assay [2] amounted to 15 nM.

With `Cc1nn(CCCCCCCCNc2cccc3c2CN(C2CCC(=O)NC2=O)C3=O)c2cc(C(=O)Nc3cc4[nH]c([C@H]5CCCN5C)cc4cn3)ccc12` (stereo partly drawn) [Example 16, 1-(8-{[2-(2,6-dioxopiperidin-3-yl)-1-oxo-3H-isoindol-4-yl]amino}octyl)-3-methyl-N-{2-[(2R)-1-methylpyrrolidin-2-yl]-1H-pyrrolo[3,2-c]pyridin-6-yl}indazole-6-carboxamide], in assay [1], the inhibition at 0.01 µM is ≥ 75%, the inhibition at 0.1 µM was ≥ 75% and the inhibition at 1 µM was ≥ 75%. Further, in assay [2], the IC50 was 9 nM.
